Measurements taken from patent publication US20090155209A1, “NOVEL MACROCYCLIC INHIBITORS OF HEPATITIS C VIRUS REPLICATION” (priority 2007, published 2009).

Assays:
NS3-NS4 [1] = biological target: T1, NS3-NS4 (Hepatitis C virus genotype 1a, UniProt P27958); assay: cell-based; details: EC50, NS3-NS4 activity
NS3-NS4 [2] = biological target: T1, NS3-NS4; assay: NS3-NS4 activity, IC50 (Example 37, Table 8); format: biochemical

T1 sequence (P27958 1027-1657): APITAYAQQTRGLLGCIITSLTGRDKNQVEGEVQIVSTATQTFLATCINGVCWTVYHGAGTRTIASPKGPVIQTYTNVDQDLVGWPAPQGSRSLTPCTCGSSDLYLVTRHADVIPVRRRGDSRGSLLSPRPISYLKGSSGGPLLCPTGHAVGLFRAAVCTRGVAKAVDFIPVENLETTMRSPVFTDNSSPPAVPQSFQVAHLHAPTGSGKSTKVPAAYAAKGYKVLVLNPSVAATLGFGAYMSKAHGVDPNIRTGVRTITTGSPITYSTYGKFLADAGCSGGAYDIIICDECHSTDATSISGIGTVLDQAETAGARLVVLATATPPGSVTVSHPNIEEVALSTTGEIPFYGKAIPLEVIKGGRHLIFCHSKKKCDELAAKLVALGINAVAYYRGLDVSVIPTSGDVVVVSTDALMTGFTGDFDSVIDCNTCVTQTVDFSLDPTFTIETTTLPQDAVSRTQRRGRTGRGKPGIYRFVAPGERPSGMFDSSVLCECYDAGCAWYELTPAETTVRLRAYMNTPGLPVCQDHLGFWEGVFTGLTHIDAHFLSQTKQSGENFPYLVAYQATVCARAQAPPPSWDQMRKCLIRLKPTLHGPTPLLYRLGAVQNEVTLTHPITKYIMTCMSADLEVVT
T1 sequence (P27958 1658-1711): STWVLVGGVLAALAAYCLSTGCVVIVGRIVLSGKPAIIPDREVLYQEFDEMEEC

Structure (SMILES) | EC50 (NS3-NS4 [1]) [nM] | IC50 (NS3-NS4 [2]) [nM]
O=C1N[C@]2(C(=O)NS(=O)(=O)C3CC3)C[C@H]2/C=C\CCCCC[C@H](Nc2nc(-c3ccccn3)cs2)C(=O)N2C[C@H](OC(=O)N3Cc4cccc(F)c4C3)C[C@@H]12 [Compound 212] | < 100 | < 100
CCC(C)(C)OC(=O)N[C@H]1CCOCC/C=C\[C@@H]2C[C@@]2(C(=O)NS(=O)(=O)c2ccc(Cl)cc2)NC(=O)[C@@H]2C[C@@H](OC(=O)N3Cc4cccc(Cl)c4C3)CN2C1=O [Compound 325, (2R,6S,13aS,14aR,16aS,Z)-14a-(4-chlorophenylsulfonylcarbamoyl)-5,16-dioxo-6-(tert-pentyloxycarbonylamino)-2,3,5,6,7,8,10,11,13a,14,14a,15,16,16a-tetradecahydro-1H-cyclopropa[j]pyrrolo[1,2-f][1,6,9]oxadiazacyclopentadecin-2-yl 4-chloroisoindoline-2-carboxylate] | < 100 | < 100
CC(C)(C)O[C@@H]1C[C@H]2C(=O)N[C@]3(C(=O)NS(=O)(=O)C4CC4)C[C@H]3/C=C\CCCCC[C@H](Nc3nc(-c4ccccc4)c(-c4ccccc4)s3)C(=O)N2C1 [Compound 242] | 1000 to 10000 | < 100
Cc1nc(N[C@H]2CCCCC/C=C\[C@@H]3C[C@@]3(C(=O)NS(=O)(=O)C3CC3)NC(=O)[C@@H]3C[C@@H](OC(=O)N4Cc5cccc(F)c5C4)CN3C2=O)sc1C [Compound 231] | < 100 | < 100
CC(C)(C)ONC(=O)[C@@]12C[C@H]1CCCCCCC[C@H](NC(=O)OC(C)(C)C)C(=O)N1C[C@H](OC(=O)N3Cc4cccc(F)c4C3)C[C@H]1C(=O)N2 [Compound 815] | < 100 | < 100
C[C@H](O)CONC(=O)[C@@]12C[C@H]1/C=C\CCCCC[C@H](NC(=O)OC(C)(C)C)C(=O)N1C[C@H](OC(=O)N3Cc4cccc(F)c4C3)C[C@H]1C(=O)N2 [Compound 110] | < 100 | < 100
CC(C)(C)OC(=O)N[C@H]1CCCCC/C=C\[C@@H]2C[C@@]2(C(=O)NS(=O)(=O)Cc2ccc(F)c(F)c2)NC(=O)[C@@H]2C[C@@H](OC(=O)N3Cc4cccc(F)c4C3)CN2C1=O [Compound 522] | 100 to 1000 | < 100
CCC1(OC(=O)N[C@H]2CCCCC/C=C\[C@@H]3C[C@@]3(C(=O)NS(=O)(=O)C3CC3)NC(=O)[C@@H]3C[C@@H](OC(=O)N4Cc5cccc(F)c5C4)CN3C2=O)CC1 [Compound 442] | < 100 | < 100
CC(C)(C)OC(=O)N[C@H]1CCCCC/C=C\[C@@H]2C[C@@]2(C(=O)NS(=O)(=O)C2(C)CC2)NC(=O)[C@@H]2C[C@@H](OC(=O)N3Cc4cccc(F)c4C3)CN2C1=O [Compound 444] | < 100 | < 100
CC(C)(C)OC(=O)N[C@H]1CCCCC/C=C\[C@@H]2C[C@@]2(C(=O)NS(=O)(=O)c2c(Cl)cccc2Cl)NC(=O)[C@@H]2C[C@@H](OC(=O)N3Cc4cccc(F)c4C3)CN2C1=O [Compound 311] | 100 to 1000 | < 100
CC(C)(C)ONC(=O)[C@@]12C[C@H]1/C=C\CCCCC[C@H](NC(=O)OC(C)(C)C)C(=O)N1C[C@H](OC(=O)N3Cc4cccc(Cl)c4C3)C[C@H]1C(=O)N2 [Compound 108] | < 100 | < 100
O=C1N[C@]2(C(=O)NS(=O)(=O)C3CC3)C[C@H]2/C=C\CCCCC[C@H](Nc2nc(-c3ccc(F)cc3)cs2)C(=O)N2C[C@H](Oc3nc(-c4ccccc4)nc4ccccc34)C[C@@H]12 [Compound 204, (2R,6S,13aS,14aR,16aS,Z)-N-(cyclopropylsulfonyl)-6-(4-(4-fluorophenyl)thiazol-2-ylamino)-5,16-dioxo-2-(2-phenylquinazolin-4-yloxy)-1,2,3,5,6,7,8,9,10,11,13a,14,14a,15,16,16a-hexadecahydrocyclopropa[e]pyrrolo[1,2-a][1,4]diazacyclopentadecine-14a-carboxamide] | < 100 | < 100
O=C1N[C@]2(C(=O)NS(=O)(=O)C3CC3)C[C@H]2/C=C\CCCCC[C@H](Nc2nc(-c3ccc(Cl)cc3)cs2)C(=O)N2C[C@H](OC(=O)N3Cc4cccc(F)c4C3)C[C@@H]12 [Compound 207] | < 100 | < 100
CC(C)(C)OC(=O)N[C@H]1CCCCC/C=C\[C@@H]2C[C@@]2(C(=O)NS(=O)(=O)Cc2ccc(Cl)c(Cl)c2)NC(=O)[C@@H]2C[C@@H](OC(=O)N3Cc4cccc(F)c4C3)CN2C1=O [Compound 526] | 100 to 1000 | < 100
CC(C)(C)OC(=O)N[C@H]1CCCCC/C=C\[C@@H]2C[C@@]2(C(=O)NS(=O)(=O)c2ccc(Cl)cc2Cl)NC(=O)[C@@H]2C[C@@H](OC(=O)N3Cc4cccc(F)c4C3)CN2C1=O [Compound 348] | < 100 | < 100
Cc1cccc(ONC(=O)[C@@]23C[C@H]2/C=C\CCCCC[C@H](NC(=O)OC(C)(C)C)C(=O)N2C[C@H](OC(=O)N4Cc5cccc(F)c5C4)C[C@H]2C(=O)N3)c1C [Compound 712] | 1000 to 10000 | < 100
O=C1N[C@]2(C(=O)NS(=O)(=O)C3CC3)C[C@H]2/C=C\CCCCC[C@H](Nc2nc(-c3ccc(F)cc3)cs2)C(=O)N2C[C@H](OC(=O)N3CCc4ccccc4C3)C[C@@H]12 [Compound 232] | < 100 | < 100
CCc1ccc(S(=O)(=O)NC(=O)[C@@]23C[C@H]2/C=C\CCCCC[C@H](NC(=O)OC(C)(C)C)C(=O)N2C[C@H](OC(=O)N4Cc5cccc(F)c5C4)C[C@H]2C(=O)N3)cc1 [Compound 320] | < 100 | < 100

Structure (SMILES) | EC50 (NS3-NS4 [1]) [nM] | IC50 (NS3-NS4 [2]) [nM]
O=C1N[C@]2(C(=O)NS(=O)(=O)C3CC3)C[C@H]2/C=C\CCC(F)(F)CC[C@H](NC(=O)C2(C(F)(F)F)CC2)C(=O)N2C[C@H](OC(=O)N3Cc4cccc(F)c4C3)C[C@@H]12 [Compound 408] | < 100 | < 100
COc1cccc(ONC(=O)[C@@]23C[C@H]2CCCCCCC[C@H](NC(=O)OC(C)(C)C)C(=O)N2C[C@H](OC(=O)N4Cc5cccc(F)c5C4)C[C@H]2C(=O)N3)c1 [Compound 801] | 1000 to 10000 | < 100
CC(C)COC(=O)N[C@H]1CCCCC/C=C\[C@@H]2C[C@@]2(C(=O)NS(=O)(=O)c2cc(Cl)sc2Cl)NC(=O)[C@@H]2C[C@@H](OC(=O)N3Cc4cccc(F)c4C3)CN2C1=O [Compound 342] | < 100 | < 100
CC(C)(C)OC(=O)N[C@H]1CCCCC/C=C\[C@@H]2C[C@@]2(C(=O)NS(=O)(=O)c2ccccc2F)NC(=O)[C@@H]2C[C@@H](OC(=O)N3Cc4cccc(F)c4C3)CN2C1=O [Compound 349] | < 100 | < 100
O=C1N[C@]2(C(=O)NS(=O)(=O)C3CC3)C[C@H]2/C=C\CCCCC[C@H](Nc2nc(-c3ccc(F)c(F)c3)cs2)C(=O)N2C[C@H](OC(=O)N3Cc4cccc(F)c4C3)C[C@@H]12 [Compound 223] | < 100 | < 100
COc1ccc(S(=O)(=O)NC(=O)[C@@]23C[C@H]2CCCCCCC[C@H](NC(=O)OC(C)(C)C)C(=O)N2C[C@H](OC(=O)N4Cc5cccc(F)c5C4)C[C@H]2C(=O)N3)cn1 [Compound 638] | < 100 | < 100
O=C1N[C@]2(C(=O)NS(=O)(=O)C3CC3)C[C@H]2/C=C\CCCCC[C@H](NC(=O)N2CCC2)C(=O)N2C[C@H](OC(=O)N3Cc4cccc(F)c4C3)C[C@@H]12 [Compound 417] | < 100 | < 100
O=C(C[C@H]1CCCCC/C=C\[C@@H]2C[C@@]2(C(=O)NS(=O)(=O)C2CC2)NC(=O)[C@@H]2C[C@@H](OC(=O)N3Cc4cccc(F)c4C3)CN2C1=O)Oc1ccccc1 [Compound 419] | 100 to 1000 | < 100
Cc1ccc(S(=O)(=O)NC(=O)[C@@]23C[C@H]2/C=C\CCCCC[C@H](NC(=O)OC(C)(C)C)C(=O)N2C[C@H](OC(=O)N4Cc5cccc(F)c5C4)C[C@H]2C(=O)N3)cc1Cl [Compound 312] | 100 to 1000 | < 100
CC(C)(C)OC(=O)N[C@H]1CCCCCCC[C@@H]2C[C@@]2(C(=O)NS(=O)(=O)c2ccc(Cl)nc2Cl)NC(=O)[C@@H]2C[C@@H](OC(=O)N3Cc4cccc(F)c4C3)CN2C1=O [Compound 637] | 100 to 1000 | < 100
CC(C)(C)OC(=O)N[C@H]1CCCCC[C@H]2C[C@H]2[C@@H]2C[C@@]2(C(=O)NS(=O)(=O)C2CC2)NC(=O)[C@@H]2C[C@@H](OC(=O)N3Cc4cccc(F)c4C3)CN2C1=O [Compound 904] | < 100 | < 100
Cc1ccc(ONC(=O)[C@@]23C[C@H]2/C=C\CCCCC[C@H](NC(=O)OC(C)(C)C)C(=O)N2C[C@H](OC(=O)N4Cc5cccc(F)c5C4)C[C@H]2C(=O)N3)cc1C [Compound 714] | 1000 to 10000 | < 100
CC(C)(C)OC(=O)N[C@H]1CCCCC/C=C\[C@@H]2C[C@@]2(C(=O)NS(=O)(=O)c2ccccc2Cl)NC(=O)[C@@H]2C[C@@H](OC(=O)N3Cc4cccc(F)c4C3)CN2C1=O [Compound 332] | < 100 | < 100
CCC(C)(C)OC(=O)N[C@H]1CCCCC/C=C\[C@@H]2C[C@@]2(C(=O)NS(=O)(=O)c2ccc(Cl)cc2)NC(=O)[C@@H]2C[C@@H](OC(=O)N3Cc4cccc(F)c4C3)CN2C1=O [Compound 336] | < 100 | < 100
O=C(N[C@H]1CCCCC/C=C\[C@@H]2C[C@@]2(C(=O)NS(=O)(=O)c2ccc(Cl)cc2)NC(=O)[C@@H]2C[C@@H](OC(=O)N3Cc4cccc(Cl)c4C3)CN2C1=O)OC1CCOCC1 [Compound 335] | 100 to 1000 | < 100
CC(C)(C)CONC(=O)[C@@]12C[C@H]1/C=C\CCCCC[C@H](NC(=O)OC(C)(C)C)C(=O)N1C[C@H](OC(=O)N3Cc4cccc(F)c4C3)C[C@H]1C(=O)N2 [Compound 720] | < 100 | < 100
O=C1N[C@]2(C(=O)NS(=O)(=O)C3CC3)C[C@H]2/C=C\CCCCC[C@H](NC(=O)C2(C(F)(F)F)CC2)C(=O)N2C[C@H](OC(=O)N3Cc4cccc(F)c4C3)C[C@@H]12 [Compound 403, (2R,6S,13aS,14aR,16aS,Z)-14a-(cyclopropylsulfonylcarbamoyl)-5,16-dioxo-6-(1-(trifluoromethyl)cyclopropanecarboxamido)-1,2,3,5,6,7,8,9,10,11,13a,14,14a,15,16,16a-hexadecahydrocyclopropa[e]pyrrolo[1,2-a][1,4]diazacyclopentadecin-2-yl 4-fluoroisoindoline-2-carboxylate] | < 100 | < 100
